Assay results reported in PubChem BioAssay AID2060492 (Molecular Pharmacology Branch, DTP, NCI, 2025).
Where “and” joins values, the source holds several entries; their conditions need not be identical. Equal entries are not always repeated.

Test system: 695427-040-R-J1-PDC complex spheroids, viability percent T/C
Assay: Anticancer human tumor 695427-040-R-J1-PDC patient-derived colon adenocarcinoma cell line growth inhibition [GQUAD]
Details: for viability, T/C: stronger effect = lower value
From the text: DNA G-quadruplex Stabilizer Agents in Combinations in Complex Spheroids
A high-throughput screen of multi-cell type tumor spheroids was designed to identify active combinations of DNA G-quadruplex stabilizer agents and targeted small molecules. Complex spheroids include a stromal component modeled by human endothelial cells (HUVEC) and fibroblasts modeled by human mesenchymal stem cells (MSCs). The concentration ranges selected for each drug and investigational agent were based upon clinically achievable concentrations if the clinical Cmax of the agent was known.
Compounds. The drugs and investigational agents: pidnarulex (CX-5461; NSC782164), APTO-253 (NSC789042), BRACO-19 (NSC847499), peposertib (NSC802822), ceralasertib (NSC780249), elimusertib (NSC800525), camonsertib (NSC841442), AZD-1390 (NSC803789), olaparib (NSC753686), talazoparib (NSC767125), ART-558 (NSC835418), sotorasib (NSC818433), MRTX-1133 (NSC836407), SN-38 (NSC673596), topotecan (NSC609699), etoposide (NSC141540), doxorubicin (NSC123127), gemcitabine (NSC613327), 5-fluorouracil (NSC19893), paclitaxel (NSC125973), vemurafenib (NSC761431), panobinostat (NSC761190), R-306465 (JNJ-16241199; NSC773264), adavosertib (NSC754352), TP-3654 (NSC805149), carboplatin (NSC241240), KSQ-4279 (NSC840948), and staurosporine (NSC755774) were obtained from the National Cancer Institute (NCI) Developmental Therapeutics Program Chemical Repository (34). The FDA-approved anticancer drug set is available from the NCI Developmental Therapeutics Program. […] The stock solutions were prepared in dimethyl sulfoxide (DMSO, Sigma-Aldrich, St. Louis, MO, cat. D2650) at 800-fold the tested concentration and stored at -70 degrees C prior to their use. All drugs and investigational agents were tested over a range starting from a high concentration at or near the clinical Cmax and decreasing in half-log increments. If the clinical Cmax for an agent had not been determined, the highest concentration tested was 10 microM.
2.3 Cell Culture. All cells were maintained in an incubator at 37 degrees C and 5% CO2 with 95% humidity. The PDC lines were cultured according to standard operating procedures established by the NCI PDMR. All PDCs were thawed and cultured in Matrigel-coated flasks prepared with a working solution of 1X Ham's F-12 nutrient mix, without supplementation (Invitrogen, cat. 11765054), 100 U/mL penicillin-streptomycin (Invitrogen, cat. 15140122), and 2.5% Matrigel (Corning Inc., cat. 354248) for the first three passages. The 857933-349-R-J2-PDC line was cultured in 6C/Colon 1B media, which includes advanced DMEM/F-12 (Thermo Fisher Scientific, cat. 12634028), 10 mM HEPES (Thermo Fisher Scientific, cat. 15630080), 1X GlutaMAX supplement (Thermo Fisher Scientific, cat. 35050061), 0.1 mg/mL primocin (InvivoGen, cat. ant-pm-2), 10% defined fetal bovine serum, heat inactivated (HyClone Laboratories Inc., cat. SH30070.03HI), 50% L-WRN conditioned media (ATCC, cat. CRL-3276), 1.25 mM N-Acetyl-L-cysteine (Sigma-Aldrich, cat. A9165), 10 mM nicotinamide (Sigma-Aldrich, cat. N0636), 1X B-27 supplement (Thermo Fisher Scientific, cat. 17504044), 1X N-2 supplement (Thermo Fisher Scientific, cat. 17502048), 10 microM Y-27632 dihydrochloride (Tocris Bioscience, cat. 1254), and 50 ng/mL human EGF recombinant protein (Thermo Fisher Scientific, cat. PHG0311). The 485176-168-R4-J1-PDC line was cultured in Panc media, which includes all 6C/Colon 1B media components plus 100 ng/mL human FGF-10 (Thermo Fisher Scientific, cat. 100-26), 500 nM SB-431542 (Selleckchem, cat. S1067), and gastrin (Tocris, cat. 3006).
[…]

[1] = compound alone, run of 04/22/2024
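Note: spheroids exposed to compounds for seven days before readout.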

Compound	viability, T/C (compound 0.0316 µM)	viability, T/C (compound 0.1 µM)	viability, T/C (compound 0.316 µM)	viability, T/C (compound 1 µM)	viability, T/C (compound 3.16 µM)	viability, T/C (compound 10 µM)	IC50 (curve of compound)	viability, T/C (compound 0.000999 µM)	viability, T/C (compound 0.00316 µM)	viability, T/C (compound 0.00999 µM)	viability, T/C (compound 0.0999 µM)	IC50 [1] [µM]	IC50 (compound alone, run of 04/16/2024) [µM]
C#Cc1c(F)ccc2cc(O)cc(-c3ncc4c(N5CC6CCC(C5)N6)nc(OCC56CCCN5CC(F)C6)nc4c3F)c12 (stereo not drawn)	95.2% and 101% and 104%	102% and 103% and 111%	95.2% and 99.6% and 102%	94.3% and 81.3% and 97.2%	56.7% and 17.5% and 103%	59% and 15.6% and 82.1%	> 10 µM and 1.76 µM						
C=CC(=O)N1CCN(c2nc(=O)n(-c3c(C)ccnc3C(C)C)c3nc(-c4c(O)cccc4F)c(F)cc23)C(C)C1 (stereo not drawn)	97.2% and 103% and 104%	93.4% and 97.8% and 82.5%	103% and 101% and 102%	98.8% and 105% and 85.6%	92.6% and 110% and 68.9%	90.5% and 106% and 97.2%	> 10 µM						
C=CCn1c(=O)c2cnc(Nc3ccc(N4CCN(C)CC4)cc3)nc2n1-c1cccc(C(C)(C)O)n1	102% and 100% and 86.2%	105% and 85.8% and 89.5%	107% and 86.4% and 87.7%	105% and 80.5% and 61.6%	107% and 68.6% and 54.9%	66.5% and 54.9% and 35.4%	> 10 µM and 3.18 µM						
CC(=O)O[C@H]1C(=O)[C@@]2(C)[C@H]([C@H](OC(=O)c3ccccc3)[C@]3(O)C[C@H](OC(=O)[C@H](O)[C@@H](NC(=O)c4ccccc4)c4ccccc4)C(C)=C1C3(C)C)[C@]1(OC(C)=O)CO[C@@H]1C[C@@H]2O	92.5% and 97.5% and 84.8%	90.5% and 92.7% and 88.8%	72.9% and 89.3% and 82.4%										
CC(C)(O)C1CCC(Nc2ccc3ncc(-c4cccc(C(F)(F)F)c4)n3n2)CC1 (stereo not drawn)	109% and 99.2% and 78.5%	101% and 97.4% and 88.4%	111% and 94.6% and 101%	105% and 80.1% and 66.9%	97.6% and 16% and 12.7%	87.6% and 15.5% and 13.5%	> 10 µM and 1.72 µM and 1.44 µM						
CC(C)n1c(=O)n(C)c2cnc3cc(F)c(-c4ccc(OCCCN5CCCCC5)nc4)cc3c21	97.4% and 115% and 95.5%	102% and 97.8% and 101%	110% and 102% and 97.8%	118% and 115% and 110%	74% and 109% and 84.6%	57.9% and 69.9% and 56.8%	> 10 µM						
CC1COCCN1c1cc(-c2ccnn2C)c2ccnc(-c3ccn[nH]3)c2n1 (stereo not drawn)	88.2% and 92.1% and 81.5%	71.7% and 79.9% and 54.3%	50.6% and 61.6% and 45.6%	34.4% and 49.4% and 35.4%	27.7% and 46.1% and 23%	26.8% and 40.4% and 24.8%	0.318 µM and 0.979 µM and 0.181 µM						
CC1COCCN1c1cc(C2(O)CC3CCC(C2)O3)c2cnn(-c3ccn[nH]3)c2n1 (stereo not drawn)	79.3% and 91.3% and 95%	66.4% and 78.3% and 88.3%	54.6% and 68.4% and 73.6%	41.1% and 52% and 56.7%	23.6% and 30.7% and 47.5%	20% and 23.6% and 36.8%	0.431 µM and 0.993 µM and 2.09 µM						
CC1COCCN1c1cc(C2(S(C)(=N)=O)CC2)nc(-c2ccnc3[nH]ccc23)n1 (stereo not drawn)	98.2% and 95.8% and 104%	80.6% and 102% and 90.9%	82% and 94.1% and 92.3%	85.7% and 94.6% and 87.3%	59.1% and 88.3% and 68.5%	55.5% and 73.5% and 54.2%	> 10 µM						
CCCS(=O)(=O)Nc1ccc(F)c(C(=O)c2c[nH]c3ncc(-c4ccc(Cl)cc4)cc23)c1F	96% and 108% and 99.2%	92.3% and 101% and 87.5%	90.3% and 110% and 114%	79.9% and 102% and 101%	65.4% and 116% and 103%	58.2% and 67.2% and 40.1%	> 10 µM and 8.3 µM						
CC[C@@]1(O)C(=O)OCc2c1cc1n(c2=O)Cc2cc3c(CN(C)C)c(O)ccc3nc2-1	93.2% and 102% and 89.2%		82.7% and 90.3% and 80.3%				> 0.316 µM	93.2% and 113% and 101%	97.2% and 103% and 94.8%	109% and 96.7% and 103%	81.3% and 103% and 88.3%		
CCc1c2c(nc3ccc(O)cc13)-c1cc3c(c(=O)n1C2)COC(=O)[C@]3(O)CC	73.2% and 80.9% and 61%		41.9% and 54.7% and 34.1%				0.175 µM and > 0.316 µM and 0.0507 µM	94.6% and 102% and 82.8%	74.4% and 96.6% and 88.9%	82.1% and 85% and 83.3%	54.9% and 68.1% and 33.5%		
CN(C)c1ccc(Nc2c3ccc(NC(=O)CCN4CCCC4)cc3nc3cc(NC(=O)CCN4CCCC4)ccc23)cc1	104% [middle of 12 runs]	102% [middle of 12 runs]	104% [middle of 12 runs]	99.1% [middle of 12 runs]	103% [middle of 12 runs]	92.2% [middle of 12 runs]						> 10	
COc1cc(C2c3cc4c(cc3C(OC3OC5COC(C)OC5C(O)C3O)C3COC(=O)C23)OCO4)cc(OC)c1O (stereo not drawn)	96.9% and 98.6% and 100%	90.3% and 81.4% and 90%	110% and 86.1% and 104%	97.4% and 90% and 94.7%	95.6% and 68.2% and 90.1%	77.5% and 61.8% and 75.3%	> 10 µM						
COc1ccc([C@@H](O)c2cc(-c3ncnc4cc(N5CCOCC5)ccc34)c(F)cc2Cl)nn1	91.1% and 96.7% and 94.1%	79.7% and 91.7% and 86.8%	101% and 91.6% and 95.4%	70.5% and 92% and 82.2%	69% and 67.2% and 61%	50.5% and 51% and 46%	> 10 µM and 7.33 µM						
COc1cccc2c1C(=O)c1c(O)c3c(c(O)c1C2=O)CC(O)(C(=O)CO)CC3OC1CC(N)C(O)C(C)O1 (stereo not drawn)	108% and 100% and 89.9%	88.7% and 92.9% and 92.4%	90.9% and 94.7% and 84.1%	90.9% and 89.8% and 68.8%	74.8% and 60.3% and 59%	44.5% and 47.9% and 43.7%	8.21 µM and 8.19 µM and 5.94 µM						
COc1ncnc(C2CC2)c1-c1ncc2cnn(Cc3ccc(-c4nc(C(F)(F)F)cn4C(C)C)cc3)c2n1	86.9% and 97.4% and 103%	92.5% and 96.3% and 95.5%	93.3% and 102% and 94.6%	81.1% and 99.2% and 93%	71.3% and 107% and 93.5%	82% and 78% and 98%	> 10 µM						
Cc1[nH]c2ccc(F)cc2c1-c1nc2c3cccnc3c3ncccc3c2[nH]1		103% [middle of 12 runs]	102% [middle of 12 runs]	97% [middle of 12 runs]	87.2% [middle of 12 runs]	80.3% [middle of 12 runs]						> 10	> 10
Cc1[nH]c2ccccc2c1CCNCc1ccc(/C=C/C(=O)NO)cc1	98.7% and 110% and 101%		89.6% and 68% and 71.7%				> 0.316 µM	98.8% and 112% and 98%	103% and 100% and 96.8%	98.5% and 103% and 99.5%	96.6% and 93.8% and 94.2%		
Cc1cccc(N(C)C(=O)C2C(O)CCN2c2nc(C)cc(C(F)(F)F)c2C#N)c1 (stereo not drawn)	109% and 104% and 116%	90.7% and 90.4% and 93.4%	88.3% and 106% and 102%	101% and 94.8% and 87.2%	85.2% and 105% and 78.1%	87.4% and 90.2% and 74.4%	> 10 µM						
Cc1cnc(CNC(=O)c2c(=O)c3ccc(N4CCCN(C)CC4)nc3n3c2sc2ccccc23)cn1	95.8% [middle of 12 runs]	91.6% [middle of 12 runs]	85.3% [middle of 12 runs]	76.2% [middle of 12 runs]	58% [middle of 12 runs]	44.7% [middle of 12 runs]							
Cn1ncnc1[C@H]1c2n[nH]c(=O)c3cc(F)cc(c23)N[C@@H]1c1ccc(F)cc1	108% and 98.7% and 87.9%		69.6% and 93.1% and 74.3%				> 0.316 µM	93.3% and 88.5% and 90.8%	80.2% and 90.7% and 85.4%	88.3% and 95.7% and 109%	99.3% and 102% and 82.7%		
Nc1ccn(C2OC(CO)C(O)C2(F)F)c(=O)n1 (stereo not drawn)	81.8% and 90.5% and 89.3%	77.1% and 75.9% and 76.4%	72.5% and 81.7% and 66.8%	64.7% and 73.6% and 62.1%	51.1% and 69.9% and 47%	54.9% and 64.9% and 48.6%	> 10 µM and 4.78 µM						
O=C(NO)c1cnc(N2CCN(S(=O)(=O)c3ccc4ccccc4c3)CC2)nc1	99.2% and 107% and 96.1%	97.4% and 90.7% and 87.3%	98% and 73.8% and 71.3%										
O=C(c1cc(Cc2n[nH]c(=O)c3ccccc23)ccc1F)N1CCN(C(=O)C2CC2)CC1	84.8% and 115% and 98.4%	94.2% and 98.6% and 103%	93.2% and 99.7% and 95.8%	99.4% and 97.6% and 92.7%	72.7% and 105% and 88.9%	88% and 93.6% and 77.6%	> 10 µM						
O=c1[nH]cc(F)c(=O)[nH]1	95.9% and 105% and 110%	85.8% and 99.6% and 96.4%	86% and 106% and 100%	97.5% and 100% and 88.9%	80.1% and 63.3% and 102%	86.5% and 98.3% and 92%	> 10 µM						
